Experiment: in vitro
Details: human, hela cells, % viability

Point of comparison: `Nc1nc(Cl)c2ncn([C@@H]3O[C@H](CO)[C@H](O)C3O)c2n1` (stereo partly shown) [CBK201291], viability at 28.5 h, 10 µM 81%. Against it:
- Nc1nc2c(nc(OCc3ccccc3)n2C2OC(CO)C(O)C2O)c(=O)[nH]1 (stereo not shown) [CBK201247] — lower, 80.6%
- O=C(Nc1ncnc2c1[nH]c(=O)n2C1CC(O)C(CO)O1)c1ccccc1 (stereo not shown) [CBK201250] — higher, 94.6%
- COC1C(O)C(CO)OC1n1cc(C)c(=O)[nH]c1=O (stereo not shown) [CBK201251] — higher, 103%
- Nc1ncnc2c1nc1n2[C@H]2C[C@@H](O)[C@@H](C1)O2 [CBK201254] — higher, 102%
- Nc1ncnc2c1ccn2[C@H]1C[C@@H](O)[C@@H](CO)O1 [CBK201258] — higher, 95.5%
- Nc1ncnc2c1nc1n2[C@H]2C[C@@H](O)[C@H](O2)C1=O [CBK201259] — higher, 98.2%
- N#CCCSc1ccn(C2CC(O)C(CO)O2)c(=O)n1 (stereo not shown) [CBK201261] — higher, 97.9%
- Nc1cccc(-c2cn([C@H]3C[C@@H](O)[C@@H](CO)O3)c(=O)[nH]c2=O)c1 [CBK201262] — higher, 94.4%
- OC[C@H]1OCC[C@H]1O [CBK201263] — higher, 113%
- OC[C@H]1O[C@@H](n2cnc3c(Cl)ncnc32)C(O)[C@H]1O (stereo partly shown) [CBK201266] — higher, 99.1%
- Cc1cn([C@@H]2O[C@H](CO)[C@H](O)C2O)c(=O)nc1N (stereo partly shown) [CBK201268] — higher, 105%
- Nc1nc2c([nH]c(=O)n2[C@H]2C[C@@H](O)[C@@H](CO)O2)c(=O)[nH]1 [CBK201269] — higher, 94.7%
- O=C(O)/C=C/c1cn([C@@H]2O[C@H](CO)[C@H](O)C2O)c(=O)[nH]c1=O (stereo partly shown) [CBK201270] — higher, 96.7%
- Cn1cc([C@H]2C[C@@H](O)[C@@H](CO)O2)c(=O)n(C)c1=O [CBK201272] — higher, 97.3%
- OC[C@H]1O[C@@H](n2cnc3c(Cl)nccc32)C[C@H]1O [CBK201273] — higher, 88.5%
- Nc1ccn([C@H]2C[C@@H](O)[C@@H](CO)O2)c(=O)n1 [CBK201274] — higher, 96.2%
- Nc1nc(N)c2ncn([C@@H]3O[C@H](CO)[C@H](O)C3O)c2n1 (stereo partly shown) [CBK201275] — higher, 102%
- CN(C)/C=N/c1nc2c(ccn2C2CC(O)C(CO)O2)c(=O)[nH]1 (stereo not shown) [CBK201276] — higher, 107%
- Cn1c(=O)ccn([C@@H]2O[C@H](CO)[C@H](O)C2O)c1=O (stereo partly shown) [CBK201281] — higher, 104%
- Cc1ccc(S(=O)(=O)OC[C@H]2O[C@@H](n3ccc(=O)[nH]c3=O)C[C@H]2O)cc1 [CBK201283] — higher, 95.7%
- Nc1ncnc2c1[nH]c(=O)n2[C@H]1C[C@@H](O)[C@@H](CO)O1 [CBK201284] — higher, 98.3%
- Cc1cc2cn([C@H]3C[C@@H](O)[C@@H](CO)O3)c(=O)nc2o1 [CBK201287] — higher, 96%
- O=C(Nc1ncnc2c1ccn2C1CC(O)C(CO)O1)c1ccccc1 (stereo not shown) [CBK201289] — higher, 96.3%
- Nc1nc2c(ncn2[C@H]2C[C@@H](O)[C@@H](CO)O2)c(=O)[nH]1 [CBK201294] — higher, 98.1%
- O=C(NC/C=C/c1cn(C2OC(CO)C(O)C2O)c(=O)[nH]c1=O)C(F)(F)F (stereo not shown) [CBK201298] — higher, 104%
- C=CCOc1nc2c(=O)[nH]c(/N=C/N(C)C)nc2n1C1CC(O)C(CO)O1 (stereo not shown) [CBK201299] — higher, 93.3%
- CN1N=C(N)c2cn([C@@H]3O[C@H](COP(=O)(O)O)[C@H](O)C3O)c3ncnc1c23 (stereo partly shown) [CBK201301] — lower, 73.9%
- Nc1ncc2ncn([C@H]3C[C@@H](O)[C@@H](CO)O3)c2n1 [CBK201303] — higher, 102%
- Nc1ncnc2c1nc1n2[C@@H]2O[C@@H]([C@H](O)C2O)[C@H]1O (stereo partly shown) [CBK201305] — higher, 98.1%
- Nc1nc(=O)n([C@@H]2O[C@H](CO)[C@H](O)C2O)cc1I (stereo partly shown) [CBK201306] — higher, 107%
- Cc1cn([C@H]2C[C@@H](O)[C@@H](CO)O2)c(=O)nc1N [CBK201307] — higher, 100%
- Nc1nc(Cl)c2ccn([C@H]3C[C@@H](O)[C@@H](CO)O3)c2n1 [CBK201309] — higher, 92.4%
- Cn1cnc2c(ncn2C2OC(CO)C(O)C2O)c1=N (stereo not shown) [CBK201313] — higher, 102%
- COc1nc(N)nc2c1ncn2C1CC(O)C(CO)O1 (stereo not shown) [CBK201314] — higher, 89.4%
- Cc1cn([C@H]2C[C@@H](O)[C@@H](CN)O2)c(=O)[nH]c1=O [CBK201315] — higher, 96.2%
- O=c1ccn([C@H]2C[C@@H](O)[C@@H](CO)O2)c(=O)[nH]1 [CBK201316] — higher, 98.3%
- CN(C)/C=N/c1nc2c(nc(Br)n2C2CC(O)C(CO)O2)c(=O)[nH]1 (stereo not shown) [CBK201319] — higher, 84.7%
- Cc1cn([C@H]2C[C@@H](O)[C@@H](CO)O2)c(=O)n(CCC#N)c1=O [CBK201322] — higher, 98.4%
- Nc1nc(=O)[nH]c2c1ncn2[C@H]1C[C@@H](O)[C@@H](CO)O1 [CBK201323] — higher, 86%
- COC1C(O)C(CO)OC1n1cnc2c(=O)[nH]c(N)nc21 (stereo not shown) [CBK201324] — higher, 96.2%
- Nc1ncnc2c1cnn2[C@H]1C[C@@H](O)[C@@H](CO)O1 [CBK201325] — higher, 98%
- Nc1ncn([C@H]2C[C@@H](O)[C@@H](CO)O2)c(=O)n1 [CBK201329] — higher, 92.8%
- CN(C)/C=N/c1nc(=O)n([C@H]2CC(O)[C@@H](CO)O2)cc1/C=C/C(=O)NCCCCCCNC(=O)C(F)(F)F (stereo partly shown) [CBK201330] — higher, 97.1%
- Nc1nc2c(nc(Br)n2[C@H]2C[C@@H](O)[C@@H](CO)O2)c(=O)[nH]1 [CBK201333] — higher, 108%
- CCOc1nc(=O)c(C)cn1C1CC(O)C(CO)O1 (stereo not shown) [CBK201334] — higher, 96.5%
- CONc1nc(/N=C/N(C)C)nc2c1ncn2C1CC(O)C(CO)O1 (stereo not shown) [CBK201335] — higher, 92.7%
- COCC1OC(n2cc(C)c(=O)[nH]c2=O)CC1O (stereo not shown) [CBK201338] — higher, 94.5%
- Nc1ncnc2c1ncn2[C@H]1C[C@@H](O)[C@@H](CO)O1 [CBK201382] — higher, 94.9%
- Cc1nc(COc2ccccc2)sc1C(=O)N1CCC(C(N)=O)CC1 [CBK202603] — higher, 103%
- O=C(O)CN1C(=O)[C@@H]2Cc3ccccc3CN2C1=O [CBK202728] — higher, 82.8%
- CC(=O)Nc1sc2c(c1-c1nc3ccccc3s1)CCN(C(C)C)C2 [CBK211288] — lower, 3.98%
- COCCNC(=O)C1CCN(c2nc3c(-c4ccccc4F)csc3c(=O)[nH]2)CC1 [CBK215434] — higher, 92.6%
- CN(C)CCNC(=O)C1CCN(c2nc3c(-c4ccccc4F)csc3c(=O)[nH]2)CC1 [CBK215437] — higher, 85.1%
- COc1ccc(CNC(=O)C2CCCN(c3nc4c(-c5ccccc5)csc4c(=O)[nH]3)C2)cc1 (stereo not shown) [CBK215464] — higher, 95.2%
- NC(=O)CNC(=O)C1CCCN(c2nc3c(-c4ccccc4)csc3c(=O)[nH]2)C1 (stereo not shown) [CBK215487] — higher, 112%
- O=C(NCc1cccnc1)C1CCCN(c2nc3c(-c4ccccc4)csc3c(=O)[nH]2)C1 (stereo not shown) [CBK215492] — higher, 112%
- O=C(NCCc1cccnc1)C1CCCN(c2nc3c(-c4ccccc4)csc3c(=O)[nH]2)C1 (stereo not shown) [CBK215495] — higher, 88.7%
- COc1ccc(CNC(=O)C2CCCN(c3nc4c(-c5ccc(C)cc5)csc4c(=O)[nH]3)C2)cc1 (stereo not shown) [CBK215530] — higher, 112%
- Cc1cccc(-c2csc3c(=O)[nH]c(N4CCC(C(=O)NCc5ccncc5)CC4)nc23)c1 [CBK215625] — higher, 106%
- COCCCNC(=O)C1CCN(c2nc3c(-c4cccc(C)c4)csc3c(=O)[nH]2)CC1 [CBK215630] — higher, 96.6%
- Cc1cccc(-c2csc3c(=O)[nH]c(N4CCC(C(=O)NCCN(C)C)CC4)nc23)c1 [CBK215633] — higher, 95.8%
- Cc1cccc(-c2csc3c(=O)[nH]c(N4CCC(C(=O)NCCN5CCOCC5)CC4)nc23)c1 [CBK215640] — higher, 105%
- Cc1cccc(-c2csc3c(=O)[nH]c(N4CCC(C(=O)N5CCOCC5)CC4)nc23)c1 [CBK215644] — higher, 89.7%
- CCCC(N)CCCCCC(=O)O (stereo not shown) [CBK217078] — higher, 91.8%
- CC(C)CC(NS(=O)(=O)c1cccc2nsnc12)C(=O)O (stereo not shown) [CBK217288] — higher, 94.2%
- Cc1ccc(S(=O)(=O)NC(Cc2ccccc2)C(=O)O)cc1 (stereo not shown) [CBK217645] — higher, 102%
- Cc1ccc(OCC(=O)NC(Cc2ccccc2)C(=O)O)cc1 (stereo not shown) [CBK217681] — higher, 102%
- O=C(NC(Cc1c[nH]c2ccccc12)C(=O)O)c1ccco1 (stereo not shown) [CBK217706] — higher, 92.5%
- N#CC1=C(N)n2c(s/c(=C\c3ccc(O)cc3)c2=O)=C(C#N)C1c1ccc(O)cc1 (stereo not shown) [CBK217780] — higher, 103%
- O=C(O)C(Cc1cnc[nH]1)N1C(=O)c2ccccc2C1=O (stereo not shown) [CBK217815] — higher, 110%
- O=C(O)CSc1n[nH]c(=O)[nH]c1=O [CBK217819] — higher, 94.8%
- O=c1c(Oc2ccccc2Br)c(C(F)(F)F)oc2c(CN3CCCC3)c(O)ccc12 [CBK217827] — higher, 96%
- O=c1c2ccccc2nc(CSc2[nH]cnc3ncnc2-3)n1-c1ccc(Cl)c(Cl)c1 [CBK217854] — higher, 93.9%
- O=C(O)C1CCCN1S(=O)(=O)c1ccc(Cl)c(Cl)c1 (stereo not shown) [CBK217856] — higher, 99.1%
- COC(=O)CCNc1n[nH]c(=O)[nH]c1=O [CBK217927] — higher, 90.4%
- CC1(C(=O)O)NC(c2ccccc2O)C2C(=O)N(Cc3ccccc3)C(=O)C21 (stereo not shown) [CBK218007] — higher, 90.6%
- CC1(C)CC(CCNC(=O)CCC(=O)O)(c2ccccc2)CCO1 (stereo not shown) [CBK218198] — higher, 85.7%
- Cn1c(=O)c2c(nc(N3CCOCC3)n2CCC/N=C2\CCCCN2)n(C)c1=O [CBK218356] — higher, 105%
- CSCCC(C(=O)O)N1C(=O)c2ccccc2C1=O (stereo not shown) [CBK218448] — higher, 102%
- O=[N+]([O-])c1ccc(CN2CCN(Cc3c[nH]c4ccccc34)CC2)cc1 [CBK218620] — higher, 92.3%
- O=[N+]([O-])c1cc(CN2CCN(c3ccccc3)CC2)c(O)c2ncccc12 [CBK218696] — higher, 99.6%
- O=c1oc2ccccc2c(NCCN2CCCCC2)c1[N+](=O)[O-] [CBK218805] — higher, 92%
- O=c1[nH]cnc2c1nc(S)n2C1OC(CO)C(O)C1O (stereo not shown) [CBK218834] — higher, 96.4%
- Cc1cc(=O)n2c3c(cc(S(=O)(=O)NC4CC4)cc13)CC2 [CBK218959] — higher, 95.9%
